From US20260297085A1, “1 H-PYRROLO[2,3-B]PYRIDIN-4-YL]-2-OXOPYRROLIDINE-3-CARBONITRILE DERIVATIVES AS TYROSINE KINASE 2 (TYK2) INHIBITORS FOR THE TREATMENT OF INFLAMMATORY DISEASES” (BIOGEN MA INC., priority 2023, published 2026)
pIC50: −log10 of the molar value. Where a name gives a salt, the structure may show the parent alone.

Legend:
[1] = biological target: T1, human JAK3 kinase domain (JH1) (Homo sapiens, UniProt P52333); assay: JH1 biochemical assay for JAK3 (ADP-Glo kinase assay, recombinant JH1 catalytic domain, JAK3-974 peptide, 4 μM ATP)
T1 construct: recombinantly generated catalytic kinase (also known as JH1) domain of human JAK1, JAK2, JAK3 and TYK2
T1 sequence (P52333 822-1111 limits assumed): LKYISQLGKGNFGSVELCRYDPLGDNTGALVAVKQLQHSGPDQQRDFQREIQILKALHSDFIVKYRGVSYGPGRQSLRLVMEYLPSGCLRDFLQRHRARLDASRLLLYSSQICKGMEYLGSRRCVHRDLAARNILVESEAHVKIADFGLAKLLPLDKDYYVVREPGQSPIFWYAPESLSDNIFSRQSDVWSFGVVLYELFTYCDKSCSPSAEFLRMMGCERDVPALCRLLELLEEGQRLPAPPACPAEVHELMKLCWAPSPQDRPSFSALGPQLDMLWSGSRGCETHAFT
Method in brief: (§1)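 Reactions ran 100 min with 50 μM substrate peptide (JAK3-342 for JAK1 at 4 nM enzyme; JAK3-974 for JAK2 0.2 nM, JAK3 0.3 nM, TYK2 2 nM), and ADP formed was read by ADP-Glo luminescence. Eleven-point 3-fold series from 10 or 1 μM; IC50 fitted by 4-parameter logistic model.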

[2] = biological target: Tyk2 kinase activity on STAT4 in NK92 cells (Homo sapiens, UniProt P29597); assay: pSTAT4 cell assay (MSD; NK92 cells, 30 ng/mL IL2 stimulation); format: cell-based; details: 30 ng/mL IL2, 15 minutes
Tyk2 kinase activity on STAT4 in NK92 cells, sequence (P29597 whole entry): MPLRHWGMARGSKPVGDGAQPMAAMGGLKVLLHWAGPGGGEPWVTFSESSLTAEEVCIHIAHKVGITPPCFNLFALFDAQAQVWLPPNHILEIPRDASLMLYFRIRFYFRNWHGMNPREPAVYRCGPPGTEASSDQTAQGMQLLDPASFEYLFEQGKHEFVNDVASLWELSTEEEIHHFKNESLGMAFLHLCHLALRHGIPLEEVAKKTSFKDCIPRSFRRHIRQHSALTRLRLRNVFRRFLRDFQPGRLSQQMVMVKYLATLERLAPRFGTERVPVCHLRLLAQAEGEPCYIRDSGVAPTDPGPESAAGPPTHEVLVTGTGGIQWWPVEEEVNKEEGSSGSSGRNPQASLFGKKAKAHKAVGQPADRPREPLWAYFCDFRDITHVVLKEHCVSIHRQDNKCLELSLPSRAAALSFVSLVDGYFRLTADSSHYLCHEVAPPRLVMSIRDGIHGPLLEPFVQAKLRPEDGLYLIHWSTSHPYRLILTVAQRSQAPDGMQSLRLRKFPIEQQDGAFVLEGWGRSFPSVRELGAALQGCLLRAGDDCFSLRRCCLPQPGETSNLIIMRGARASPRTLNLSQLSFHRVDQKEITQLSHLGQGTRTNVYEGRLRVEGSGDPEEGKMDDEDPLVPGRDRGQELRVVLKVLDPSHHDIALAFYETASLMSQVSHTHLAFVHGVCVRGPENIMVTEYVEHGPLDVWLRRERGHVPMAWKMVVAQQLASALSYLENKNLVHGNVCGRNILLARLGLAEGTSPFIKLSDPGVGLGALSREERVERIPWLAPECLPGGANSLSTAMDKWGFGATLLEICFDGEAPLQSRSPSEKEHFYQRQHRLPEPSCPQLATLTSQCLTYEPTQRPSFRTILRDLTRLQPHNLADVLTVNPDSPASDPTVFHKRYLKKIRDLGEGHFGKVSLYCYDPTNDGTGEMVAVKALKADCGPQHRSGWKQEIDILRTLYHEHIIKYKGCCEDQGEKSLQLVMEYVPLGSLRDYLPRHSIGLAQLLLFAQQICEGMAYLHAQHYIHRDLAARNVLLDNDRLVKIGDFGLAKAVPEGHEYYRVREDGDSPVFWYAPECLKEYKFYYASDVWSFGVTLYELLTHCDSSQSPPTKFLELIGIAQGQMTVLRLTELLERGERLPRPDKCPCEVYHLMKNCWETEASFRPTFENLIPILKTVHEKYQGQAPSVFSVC
Method in brief: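 Serum-starved NK92 cells were preincubated 1 hr with compound (10-point, four-fold dilutions from 10 μM), then stimulated with 30 ng/mL IL2 for 15 minutes. Lysates were read on an MSD plate assay using anti-STAT4 antibodies, and IC50 came from a 4-parameter logistic fit of normalized percent activity.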

[3] = biological target: JAK1 kinase activity on STAT3 in TF1 cells (Homo sapiens, UniProt P23458); assay: pSTAT3 cell assay (MSD; TF1 cells, 30 ng/mL IL-6 stimulation); format: cell-based; details: 30 ng/mL IL-6, 15 minutes
JAK1 kinase activity on STAT3 in TF1 cells, sequence (P23458 whole entry): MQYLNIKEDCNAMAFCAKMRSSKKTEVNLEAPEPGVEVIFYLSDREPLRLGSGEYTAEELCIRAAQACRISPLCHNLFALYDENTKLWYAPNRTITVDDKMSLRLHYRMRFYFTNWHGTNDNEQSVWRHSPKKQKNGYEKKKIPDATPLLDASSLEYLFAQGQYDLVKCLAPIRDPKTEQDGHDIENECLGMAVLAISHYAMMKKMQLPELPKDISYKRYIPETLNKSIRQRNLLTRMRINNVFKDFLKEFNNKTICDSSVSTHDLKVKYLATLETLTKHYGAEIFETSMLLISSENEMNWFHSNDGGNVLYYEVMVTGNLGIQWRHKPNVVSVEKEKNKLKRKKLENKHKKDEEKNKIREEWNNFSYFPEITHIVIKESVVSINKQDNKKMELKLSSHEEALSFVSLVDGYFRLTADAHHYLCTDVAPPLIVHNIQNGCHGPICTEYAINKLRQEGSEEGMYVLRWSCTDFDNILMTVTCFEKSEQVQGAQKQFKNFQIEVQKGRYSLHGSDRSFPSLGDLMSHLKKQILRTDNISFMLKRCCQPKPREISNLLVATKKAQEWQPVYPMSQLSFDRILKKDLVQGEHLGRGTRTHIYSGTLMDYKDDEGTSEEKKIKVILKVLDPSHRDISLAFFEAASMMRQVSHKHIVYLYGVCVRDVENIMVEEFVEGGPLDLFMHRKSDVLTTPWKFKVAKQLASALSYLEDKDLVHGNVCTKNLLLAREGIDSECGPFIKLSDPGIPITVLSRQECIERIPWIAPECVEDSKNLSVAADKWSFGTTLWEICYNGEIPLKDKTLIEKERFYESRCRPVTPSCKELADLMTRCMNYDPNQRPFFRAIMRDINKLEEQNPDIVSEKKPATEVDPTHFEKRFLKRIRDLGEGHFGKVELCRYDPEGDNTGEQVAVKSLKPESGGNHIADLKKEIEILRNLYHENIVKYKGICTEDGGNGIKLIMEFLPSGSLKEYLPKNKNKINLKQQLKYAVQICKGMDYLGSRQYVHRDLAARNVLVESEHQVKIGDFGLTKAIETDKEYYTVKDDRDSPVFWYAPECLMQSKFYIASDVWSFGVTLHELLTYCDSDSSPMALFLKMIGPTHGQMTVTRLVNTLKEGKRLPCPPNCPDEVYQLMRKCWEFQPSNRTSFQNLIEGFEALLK
Method in brief: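 Serum-starved TF1 cells were pretreated with compound for 1 hour (10-point, four-fold dilutions from 10 μM), then stimulated with IL-6 for 15 minutes. Lysates were assayed for pSTAT3 by MSD with anti-STAT3 antibodies; IC50 came from a 4-parameter logistic fit of normalized percent activity.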

[4] = biological target: T2, human JAK1 kinase domain (JH1) (Homo sapiens, UniProt P23458); assay: JH1 biochemical assay for JAK1 (ADP-Glo kinase assay, recombinant JH1 catalytic domain, JAK3-342 peptide, 35 μM ATP)
T2 construct: recombinantly generated catalytic kinase (also known as JH1) domain of human JAK1, JAK2, JAK3 and TYK2
T2 sequence (P23458 875-1153 limits assumed): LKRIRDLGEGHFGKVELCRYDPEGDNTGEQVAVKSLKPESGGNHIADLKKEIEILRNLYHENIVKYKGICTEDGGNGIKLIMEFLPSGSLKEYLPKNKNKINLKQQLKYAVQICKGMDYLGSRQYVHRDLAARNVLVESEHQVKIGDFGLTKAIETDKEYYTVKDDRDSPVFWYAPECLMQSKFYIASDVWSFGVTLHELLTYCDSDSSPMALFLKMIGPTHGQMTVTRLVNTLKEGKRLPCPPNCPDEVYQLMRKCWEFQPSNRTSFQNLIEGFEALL
Method in brief: as §1

[5] = biological target: T3, human TYK2 kinase domain (JH1) (Homo sapiens, UniProt P29597); assay: JH1 biochemical assay for TYK2 (ADP-Glo kinase assay, recombinant JH1 catalytic domain, JAK3-974 peptide, 10 μM ATP)
T3 construct: recombinantly generated catalytic kinase (also known as JH1) domain of human JAK1, JAK2, JAK3 and TYK2
T3 sequence (P29597 897-1176 limits assumed): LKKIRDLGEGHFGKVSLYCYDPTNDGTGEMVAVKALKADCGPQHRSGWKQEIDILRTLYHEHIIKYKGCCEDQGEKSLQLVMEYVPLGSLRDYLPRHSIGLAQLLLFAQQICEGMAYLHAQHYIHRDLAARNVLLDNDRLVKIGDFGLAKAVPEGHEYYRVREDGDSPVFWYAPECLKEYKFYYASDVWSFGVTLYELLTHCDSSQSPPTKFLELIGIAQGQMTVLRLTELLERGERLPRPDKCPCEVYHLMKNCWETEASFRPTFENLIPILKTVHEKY
Method in brief: as §1

[6] = biological target: T4, human JAK2 kinase domain (JH1) (Homo sapiens, UniProt O60674); assay: JH1 biochemical assay for JAK2 (ADP-Glo kinase assay, recombinant JH1 catalytic domain, JAK3-974 peptide, 15 μM ATP)
T4 construct: recombinantly generated catalytic kinase (also known as JH1) domain of human JAK1, JAK2, JAK3 and TYK2
T4 sequence (O60674 849-1124 limits assumed): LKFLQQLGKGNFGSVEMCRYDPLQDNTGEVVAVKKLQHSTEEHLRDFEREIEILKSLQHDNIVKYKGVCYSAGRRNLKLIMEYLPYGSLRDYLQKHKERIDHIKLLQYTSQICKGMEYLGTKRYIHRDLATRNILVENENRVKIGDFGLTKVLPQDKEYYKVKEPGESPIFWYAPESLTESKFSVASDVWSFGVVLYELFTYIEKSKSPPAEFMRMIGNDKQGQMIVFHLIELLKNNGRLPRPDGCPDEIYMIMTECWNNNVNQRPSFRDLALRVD
Method in brief: as §1

[7] = biological target: JAK2 kinase activity on STAT5 in TF1 cells (Homo sapiens, UniProt O60674); assay: pSTAT5 cell assay (MSD; TF1 cells, 30 ng/mL IL-3 stimulation); format: cell-based; details: 30 ng/mL IL-3, 15 minutes
JAK2 kinase activity on STAT5 in TF1 cells, sequence (O60674 whole entry): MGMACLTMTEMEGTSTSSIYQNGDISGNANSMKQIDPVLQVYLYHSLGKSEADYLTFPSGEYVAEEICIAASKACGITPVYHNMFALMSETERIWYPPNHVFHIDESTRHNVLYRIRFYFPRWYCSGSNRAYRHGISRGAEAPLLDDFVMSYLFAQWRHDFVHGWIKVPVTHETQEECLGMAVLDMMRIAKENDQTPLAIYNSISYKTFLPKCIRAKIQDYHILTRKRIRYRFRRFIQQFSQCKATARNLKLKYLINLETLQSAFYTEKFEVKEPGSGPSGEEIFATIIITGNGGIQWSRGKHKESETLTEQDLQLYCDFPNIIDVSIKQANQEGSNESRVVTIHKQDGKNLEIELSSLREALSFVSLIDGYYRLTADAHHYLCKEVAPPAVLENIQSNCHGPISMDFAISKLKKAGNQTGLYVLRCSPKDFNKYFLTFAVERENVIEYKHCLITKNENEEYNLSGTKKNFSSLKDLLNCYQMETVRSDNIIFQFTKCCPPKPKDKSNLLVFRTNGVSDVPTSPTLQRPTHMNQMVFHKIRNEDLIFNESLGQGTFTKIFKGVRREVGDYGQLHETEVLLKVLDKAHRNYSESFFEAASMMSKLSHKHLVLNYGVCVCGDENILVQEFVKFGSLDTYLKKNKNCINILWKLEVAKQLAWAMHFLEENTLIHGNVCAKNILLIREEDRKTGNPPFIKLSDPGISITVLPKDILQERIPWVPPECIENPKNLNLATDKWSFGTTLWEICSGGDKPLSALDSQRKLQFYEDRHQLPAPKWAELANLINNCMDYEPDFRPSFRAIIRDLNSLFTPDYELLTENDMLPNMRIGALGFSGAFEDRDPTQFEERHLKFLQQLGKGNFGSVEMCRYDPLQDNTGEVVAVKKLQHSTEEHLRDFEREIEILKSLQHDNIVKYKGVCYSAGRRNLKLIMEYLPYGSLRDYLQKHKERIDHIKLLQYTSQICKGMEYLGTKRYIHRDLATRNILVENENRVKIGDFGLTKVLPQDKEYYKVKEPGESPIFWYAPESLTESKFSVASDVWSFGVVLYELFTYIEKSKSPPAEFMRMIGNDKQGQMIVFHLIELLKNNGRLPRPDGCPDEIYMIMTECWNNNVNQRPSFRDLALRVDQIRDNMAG
Method in brief: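 Serum-starved TF1 cells with native JAK2/STAT5 were pretreated 1 h with compound (10-point four-fold dilutions from 10 μM), then stimulated 15 min with 30 ng/mL IL-3. pSTAT5 in lysates quantified by MSD immunoassay; normalized percent activity fitted to a 4-parameter logistic curve for IC50.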

| Compound | pIC50 ([1]; JH1 kinase domain, ADP-Glo) | pIC50 [2] | pIC50 [3] | pIC50 ([4]; JH1 kinase domain, ADP-Glo) | pIC50 ([5]; JH1 kinase domain, ADP-Glo) | pIC50 ([6]; JH1 kinase domain, ADP-Glo) | pIC50 [7] | pIC50 ([1]; JAK3 JH1, ADP-Glo) | pIC50 ([4]; JAK1 JH1, ADP-Glo) | pIC50 ([5]; TYK2 JH1, ADP-Glo) | pIC50 ([6]; JAK2 JH1, ADP-Glo) |
| --- | --- | --- | --- | --- | --- | --- | --- | --- | --- | --- | --- |
| C[C@@H]1CN(c2ccnn3cc(-c4cnc5[nH]ncc5c4)cc23)C(=O)[C@]1(C#N)C1CC1 [Example 75, (3R,4S)-1-(6-(1H-pyrazolo[3,4-b]pyridin-5-yl)pyrrolo[1,2-b]pyridazin-4-yl)-3-cyclopropyl-4-methyl-2-oxopyrrolidine-3-carbonitrile] | 6.00 to 7.00 | 7.00 to 7.30 | 5.30 to 6.00 | > 7.00 | > 8.30 | 6.00 to 7.00 | < 5.00 |  |  |  |  |
| C[C@@H]1CN(c2nc(-c3cnn(-c4cccnc4)c3)cn3nccc23)C(=O)[C@]1(C#N)C1CC1 [Example 294, (3R,4S)-3-cyclopropyl-4-methyl-2-oxo-1-(6-(1-(pyridin-3-yl)-1H-pyrazol-4-yl)pyrazolo[1,5-a]pyrazin-4-yl)pyrrolidine-3-carbonitrile] |  | 7.30 to 7.70 | 6.00 to 7.00 |  |  |  | 6.00 to 7.00 | > 7.00 | > 7.00 | > 8.30 | > 7.00 |
| C[C@@H]1CN(c2ccnn3cc(-c4cnn(C5CN(C)C5)c4)cc23)C(=O)[C@]1(C#N)C1CC1 [Example 316, (3R,4S)-3-cyclopropyl-4-methyl-1-(6-(1-(1-methylazetidin-3-yl)-1H-pyrazol-4-yl)pyrrolo[1,2-b]pyridazin-4-yl)-2-oxopyrrolidine-3-carbonitrile] |  | 7.00 to 7.30 | 5.00 to 5.30 |  |  |  | 5.00 to 5.30 | 6.00 to 7.00 | 6.00 to 7.00 | > 8.30 | 6.00 to 7.00 |
| C[C@@H]1CN(c2c[nH]c3ncc(-c4cnn(C)c4)cc23)C(=O)[C@]1(C#N)C1CC1 [Example 288, (3R,4S)-3-cyclopropyl-4-methyl-1-(5-(1-methyl-1H-pyrazol-4-yl)-1H-pyrrolo[2,3-b]pyridin-3-yl)-2-oxopyrrolidine-3-carbonitrile] |  | 7.00 to 7.30 | 5.30 to 6.00 |  |  |  | 5.30 to 6.00 | 6.00 to 7.00 | 6.00 to 7.00 | 7.70 to 8.30 | > 7.00 |
| [2H]C([2H])([2H])n1cc(-c2cc3c(N4C[C@@H](C)[C@@](C#N)(C5CC5)C4=O)ccnn3c2)cn1 [Example 164, (3R,4 S)-3-cyclopropyl-4-methyl-1-(6-(1-(methyl-d3)-1H-pyrazol-4-yl)pyrrolo[1,2-b]pyridazin-4-yl)-2-oxopyrrolidine-3-carbonitrile] | > 7.00 | 7.30 to 7.70 | 5.30 to 6.00 | > 7.00 | > 8.30 | 6.00 to 7.00 | 5.00 to 5.30 |  |  |  |  |
| C[C@@H]1CN(c2cc(-c3cnn(C(F)F)c3)cc3ncsc23)C(=O)[C@]1(C#N)C1CC1 [Example 349, (3R,4S)-3-cyclopropyl-1-(5-(1-(difluoromethyl)-1H-pyrazol-4-yl)benzo[d]thiazol-7-yl)-4-methyl-2-oxopyrrolidine-3-carbonitrile] |  | < 7.00 | 6.00 to 7.00 |  |  |  | 5.30 to 6.00 | > 7.00 | > 7.00 | > 8.30 | 6.00 to 7.00 |
| CNC(=O)c1ccc(-c2cn3nccc3c(N3C[C@@H](C)[C@@](C#N)(C4CC4)C3=O)n2)cn1 [Example 227, 5-(4-((3R,4S)-3-cyano-3-cyclopropyl-4-methyl-2-oxopyrrolidin-1-yl)pyrazolo[1,5-a]pyrazin-6-yl)-N-methylpicolinamide trifluoroacetate] |  | < 7.00 | 6.00 to 7.00 |  |  |  | 5.30 to 6.00 | > 7.00 | > 7.00 | > 8.30 | 6.00 to 7.00 |
| C[C@@H]1CN(c2nc(-c3cnn(C4COC4)c3)cn3nccc23)C(=O)[C@]1(C#N)C1CC1 [Example 251, (3R,4S)-3-cyclopropyl-4-methyl-1-(6-(1-(oxetan-3-yl)-1H-pyrazol-4-yl)pyrazolo[1,5-a]pyrazin-4-yl)-2-oxopyrrolidine-3-carbonitrile] |  | 7.30 to 7.70 | 6.00 to 7.00 |  |  |  | 6.00 to 7.00 | > 7.00 | > 7.00 | > 8.30 | > 7.00 |
| Cc1cn(-c2cc3c(N4C[C@@H](C)[C@@](C#N)(C5CC5)C4=O)ccnn3c2)cn1 [Example 341, (3R,4S)-3-cyclopropyl-4-methyl-1-(6-(4-methyl-1H-imidazol-1-yl)pyrrolo[1,2-b]pyridazin-4-yl)-2-oxopyrrolidine-3-carbonitrile] |  | < 7.00 | 5.30 to 6.00 |  |  |  | 5.00 to 5.30 | 6.00 to 7.00 | 6.00 to 7.00 | 7.70 to 8.30 | 6.00 to 7.00 |
| C[C@@H]1CN(c2ccnn3cc(-c4cn(C5COC5)nc4F)cc23)C(=O)[C@]1(C#N)C1CC1 [Example 321, (3R,4S)-3-cyclopropyl-1-(6-(3-fluoro-1-(oxetan-3-yl)-1H-pyrazol-4-yl)pyrrolo[1,2-b]pyridazin-4-yl)-4-methyl-2-oxopyrrolidine-3-carbonitrile] |  | 7.00 to 7.30 | 5.30 to 6.00 |  |  |  | 5.30 to 6.00 | 6.00 to 7.00 | 6.00 to 7.00 | > 8.30 | > 7.00 |
| C[C@@H]1CN(c2nc(-c3cnn(C(F)F)c3)cc3ncsc23)C(=O)[C@]1(C#N)C1CC1 [Example 353, (3R,4S)-3-cyclopropyl-1-(6-(1-(difluoromethyl)-1H-pyrazol-4-yl)thiazolo[5,4-c]pyridin-4-yl)-4-methyl-2-oxopyrrolidine-3-carbonitrile] |  | 7.30 to 7.70 | > 7.00 |  |  |  | 6.00 to 7.00 | > 7.00 | > 7.00 | > 8.30 | > 7.00 |
| C[C@@H]1CN(c2nn(-c3cnn(C)c3)c3cnccc23)C(=O)[C@]1(C#N)C1CC1 [Example 275, (3R,4S)-3-cyclopropyl-4-methyl-1-(1-(1-methyl-1H-pyrazol-4-yl)-1H-pyrazolo[3,4-c]pyridin-3-yl)-2-oxopyrrolidine-3-carbonitrile] |  | < 7.00 | 5.00 to 5.30 |  |  |  | < 5.00 | 6.00 to 7.00 | 6.00 to 7.00 | 7.70 to 8.30 | 5.30 to 6.00 |
| C[C@@H]1CN(c2nc(-c3ccc(S(C)(=O)=O)nc3)cn3nccc23)C(=O)[C@]1(C#N)C1CC1 [Example 257, (3R,4S)-3-cyclopropyl-4-methyl-1-(6-(6-(methylsulfonyl)pyridin-3-yl)pyrazolo[1,5-a]pyrazin-4-yl)-2-oxopyrrolidine-3-carbonitrile trifluoroacetate] |  | < 7.00 | 5.30 to 6.00 |  |  |  | 5.00 to 5.30 | 6.00 to 7.00 | > 7.00 | 7.70 to 8.30 | 6.00 to 7.00 |
| C[C@@H]1CN(c2nc(-c3cnc4c(c3)OCC(=O)N4C)cn3nccc23)C(=O)[C@]1(C#N)C1CC1 [Example 235, (3R,4S)-3-cyclopropyl-4-methyl-1-(6-(4-methyl-3-oxo-3,4-dihydro-2H-pyrido[3,2-b][1,4]oxazin-7-yl)pyrazolo[1,5-a]pyrazin-4-yl)-2-oxopyrrolidine-3-carbonitrile trifluoroacetate] |  | < 7.00 | < 5.00 |  |  |  | < 5.00 | 6.00 to 7.00 | > 7.00 | > 8.30 | 6.00 to 7.00 |
| C[C@@H]1CN(c2nc(-c3ccc4cnn(C)c4c3)cn3nccc23)C(=O)[C@]1(C#N)C1CC1 [Example 259, (3R,4S)-3-cyclopropyl-4-methyl-1-(6-(1-methyl-1H-indazol-6-yl)pyrazolo[1,5-a]pyrazin-4-yl)-2-oxopyrrolidine-3-carbonitrile trifluoroacetate] |  | 7.70 to 8.30 | > 7.00 |  |  |  | 6.00 to 7.00 | > 7.00 | > 7.00 | > 8.30 | > 7.00 |
| C[C@@H]1CN(c2ccnn3cc(-c4cnn(C5COC5)c4)cc23)C(=O)[C@]1(C#N)C1CC1 [Example 97, (3R,4S)-3-cyclopropyl-4-methyl-1-(6-(1-(oxetan-3-yl)-1H-pyrazol-4-yl)pyrrolo[1,2-b]pyridazin-4-yl)-2-oxopyrrolidine-3-carbonitrile] | > 7.00 | 7.30 to 7.70 | 5.30 to 6.00 | > 7.00 | > 8.30 | > 7.00 | 5.30 to 6.00 |  |  |  |  |
